Reference: US10828301B2, “2,4-pyrimidinediamine compounds and their uses” (Rigel Pharmaceuticals, Inc, priority 2002, dated 2020)

Legend:
[1] = system: cultured human mast cells (CHMC); experiment: CHMC low cell density IgE activation: tryptase and LTC4 assays; type: cell-based; details: Low Density CHMC, anti-IgE activation, tryptase readout, read-out: CHMC anti-IgE Tryptase
In short: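 Degranulation measured after 30 min anti-IgE challenge at 37° C of CHMC plated at 1000-1500 cells/well following 1 h preincubation. Readouts: LTC4 by ELISA on donor-specific diluted supernatants, and tryptase activity from a 30 min room-temperature substrate reaction.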

[2] = system: cultured human mast cells (CHMC); experiment: CHMC low cell density ionomycin activation: tryptase assay; type: cell-based; details: Low Density CHMC, ionomycin activation, tryptase readout, read-out: CHMC Ionomycin Tryptase

Compound | IC50 ([1]; Homo sapiens, Mast cell) [µM] | IC50 ([2]; Homo sapiens, Mast cell) [µM] | IC50 [1] [µM] | IC50 [2] [µM]
CNC(=O)C1Cc2cc(Nc3ncc(F)c(Nc4ccc(OC)nc4OC)n3)ccc2O1 (racemic) [Compound R927038, (±)-N4-(2,6-Dimethoxypyridin-3-yl)-N2-[2,3-dihydro-2-(N-methylamino)carbonylbenzofuran-5-yl]-5-fluoro-2,4-pyrimidinediamine] | 1.05 | > 10 |  | 
CCOC(=O)C=Nc1cccc(Nc2ncc(F)c(Nc3ccc4c(c3)OCCO4)n2)c1 [Compound R950186, N4-(3,4-Ethylenedioxyphenyl)-N2-(3-ethoxycarbonylmethyleneaminophenyl)-5-fluoro-2,4-pyrimidinediamine] | 0.558 | > 10 |  | 
Oc1c(Cl)cc(Nc2ncc(F)c(Nc3ccc4c(c3)OCCO4)n2)cc1Cl [Compound R926763, N4-(3,4-Ethylenedioxyphenyl)-5-fluoro-N2-(3,5-dichloro-4-hydroxyphenyl)-2,4-pyrimidinediamine] | 0.195 | > 10 |  | 
CN1C(=O)COc2ccc(Nc3ncc(F)c(Nc4cccc(O)c4)n3)cc21 [Compound R908703, 5-Fluoro-N4-(3-hydroxyphenyl)-N2-(N-methyl-1,4-benzoxazine-3-on-6-yl)-2,4-pyrimidinediamine] | 0.63 | > 10 |  | 
Fc1cnc(Nc2ccc3c(c2)OCCO3)nc1NCc1csc2ccc(Cl)cc12 [Compound R926721, N4-[(5-Chloro-1-benzothiophen-3-yl)methyl]-N2-(3,4-ethylenedioxyphenyl)-5-fluoro-2,4-pyrimidinediamine] | 4.44 | > 10 |  | 
Oc1cccc(Nc2nc(Nc3ccc4c(c3)CCO4)ncc2F)c1 [Compound R909250, N2-(2,3-Dihydrobenzofuran-5-yl)-5-fluoro-N4-(3-hydroxyphenyl)-2,4-pyrimidinediamine] | 8.03 | > 10 |  | 
CN1C=COc2cc(Nc3nc(Nc4cccc(O)c4)ncc3F)ccc21 [Compound R908707, 5-Fluoro-N2-(3-hydroxyphenyl)-N4-(N-methyl-1,4-benzoxazin-7-yl)-2,4-pyrimidinediamine] | 1.83 | > 10 |  | 
CNC(=O)COc1cccc(Nc2ncc(F)c(Nc3ccc4c(c3)C(O)CCC4)n2)c1 (racemic) [Compound R926949, 5-Fluoro-N4-(1,2,3,4-tetrahydro-1-hydroxynaphthalen-7-yl)-N2-[3-[(N-methylamino)carbonylmethyleneoxy]phenyl]-2,4-pyrimidinediamine] |  |  | 0.089 | > 10
Fc1cnc(Nc2ccc3c(c2)OCCO3)nc1NC1CCCCC1 [Compound R925794, N4-Cyclohexyl-N2-(3,4-ethylenedioxyphenyl)-5-fluoro-2,4-pyrimidinediamine] | > 10 | > 10 |  | 
Fc1cnc(Nc2cccc(-c3nnn[nH]3)c2)nc1Nc1ccc2c(c1)OCCO2 [Compound R926843, 5-Fluoro-N4-(3,4-ethylenedioxyphenyl)-N2-[3-(tetrazol-5-yl)phenyl]-2,4-pyrimidinediamine] | 7.37 | > 10 |  | 
COC(=O)c1cc2cc(Nc3ncc(F)c(Nc4cccc(C(C)C)c4)n3)ccc2o1 [Compound R940283, 5-fluoro-N4-(3-isopropylphenyl)-N2-(2-methoxycarbonylbenzofur-5-yl)-2,4-pyrimidinediamine] | 0.553 | 4.98 |  | 
CN(C)c1cccc(Nc2ncc(F)c(Nc3cccc(N(C)C)c3)n2)c1 [Compound R950182, N2,N4-Bis[3-(dimethylamino)phenyl]-5-fluoro-2,4-pyrimidinediamine] | 0.627 | > 10 |  | 
Fc1cnc(NC(c2ccc(Cl)cc2)c2ccc(Cl)cc2)nc1NC(c1ccc(Cl)cc1)c1ccc(Cl)cc1 [Compound R935006, N2,N4-Bis[di-(4-chlorophenyl)methyl]-5-fluoro-2,4-pyrimidinediamine] | 10 | 9.8 |  | 
COC(=O)c1cc2cc(Nc3ncc(F)c(Nc4ccc(Cl)cc4)n3)ccc2o1 [Compound R927026, N4-(4-Chlorophenyl)-5-fluoro-N2-(2-methoxycarbonylbenzofuran-5-yl)-2,4-pyrimidinediamine] | > 10 | > 10 |  | 
Clc1nc(Nc2ccc3c(c2)OCCO3)nc(Nc2ccc3c(c2)OCCO3)c1Cl [Compound R926467, N2,N4-Bis(3,4-ethylenedioxyphenyl)-5,6-dichloro-2,4-pyrimidinediamine] | 1.18 | 8.8 |  | 
Fc1cnc(Nc2cccnc2)nc1Nc1ccc2c(c1)OCCO2 [Compound R920668, N4-(3,4-Ethylenedioxyphenyl)-5-fluoro-N2-(3-pyridyl)-2,4-pyrimidinediamine] | 3.2 | > 10 |  | 
COC(=O)c1ccc(CNc2ncc(C#N)c(NCc3ccc(C(=O)OC)cc3)n2)cc1 [Compound R925819, N2,N4-Bis(methoxycarbonylbenzyl)-5-cyano-2,4-pyrimidinediamine] |  |  | > 10 | > 10
CC(C)(C)OC(=O)C=Nc1cccc(Nc2ncc(F)c(Nc3cccc(N=CC(=O)OC(C)(C)C)c3)n2)c1 [Compound R950177, N2,N4-Bis(3-tert-butoxycarbonylmethyleneaminophenyl)-5-fluoro-2,4-pyrimidinediamine] | 2.36 | 8.43 |  | 
Fc1cnc(Nc2ccc(N3CCN(Cc4ccccc4)CC3)cc2)nc1Nc1ccc2c(c1)OCCO2 [Compound R945163, N2-[4-(N-Benzylpiperazino)phenyl]-N4-(3,4-ethylenedioxyphenyl)-5-fluoro-2,4-pyrimidinediamine] | 0.922 | 4.25 |  | 
Cc1ccc(F)c(Nc2ncc(F)c(Nc3ccc4c(c3)OCCO4)n2)c1 [Compound R926897, N4-(3,4-Ethylenedioxyphenyl)-5-fluoro-N2-(2-fluoro-5-methylphenyl)-2,4-pyrimidinediamine] | 1.73 | > 10 |  | 
CCOC(=O)c1nc(Nc2cccc(O)c2)nc(Nc2cccc(O)c2)c1[N+](=O)[O-] [Compound R925849, N2,N4-Bis(3-hydroxyphenyl)-6-ethoxycarbonyl-5-nitro-2,4-pyrimidinediamine] | 8.2 | > 10 |  | 
Oc1c(Cl)cc(Nc2ncc(F)c(Nc3cc(Cl)c(O)c(Cl)c3)n2)cc1Cl [Compound R940215, N2,N4-Bis-(3,5-dichloro-4-hydroxyphenyl)-5-fluoro-2,4-pyrimidinediamine] | 0.845 | > 10 |  | 
CCNC(=O)Nc1cccc(Nc2ncc(F)c(Nc3cccc(NC(=O)NCC)c3)n2)c1 [Compound R945045, N2,N4-Bis[3-(ethylaminocarbonylamino)phenyl]-5-fluoro-2,4-pyrimidinediamine] | > 10 | > 10 |  | 
CCCCCCOc1ccc(Nc2cc(Nc3ccc4c(c3)OCCO4)ncc2F)cc1 [Compound R920672, N4-(4-n-Hexyloxyphenyl)-N2-(3,4-ethylenedioxyphenyl)-5-fluoro-2,4-pyridinediamine] | > 10 | > 10 |  | 
OB(O)c1cccc(Nc2nc(Nc3cccc(O)c3)ncc2F)c1 [Compound R926755, 5-Fluoro-N4-(3-dihydroxyborylphenyl)-N2-(3-hydroxyphenyl)-2,4-pyrimidinediamine] | 1.69 | > 10 |  | 
COc1cc(Nc2ncc(F)c(Nc3ccc4c(c3)OCCO4)n2)cc(OC)c1OC [Compound R926762, N4-(3,4-Ethylenedioxyphenyl)-5-fluoro-N2-(3,4,5-trimethoxyphenyl)-2,4-pyrimidinediamine] | 0.386 | > 10 |  | 
